Consider three compounds from US11083735B2, “Methods for treating sleep disorders, sleep disturbances, and related symptoms using aminosterol compositions” (Enterin, Inc., priority 2017, dated 2021).

In one data set the test system is isolated colons. Briefly: Isolated perfused colon, migrating muscular contractions (aged mouse; loperamide in young mouse). Particulars: loperamide introduced into the lumen of a young mouse. The source says: Isolated colons were mounted in an apparatus that permits continuous perfusion through the lumen, and the monitoring of the velocity, frequency and pressure of migrating muscular contractions (MMCs). Similar to the experience in humans, aging in mice is associated with diminished colonic peristaltic activity.
In humans, opiates markedly diminish GI motility and suppress fluid secretion causing constipation. […] When loperamide is introduced into the lumen of a young mouse colonic peristalsis is inhibited. When squalamine is added in presence of continued loperamide perfusion, the dysmotility is overridden.

Data set [1] in a line: Duration of the aminosterol-induced response after a single oral dose. Type of data set: in vivo, human. The conditions noted are these: single 200 mg oral dose. An excerpt: The invention is also based on the discovery of unexpected and unprecedented activity of orally or nasally administered squalamine and related aminosterols (e.g., aminosterol 1436). The activity relates to stimulating a sequence of events within the human GI tract with therapeutic value. With respect to this activity, the sequence of events stimulated by an aminosterol such as squalamine or aminosterol 1436 involves the induction of an intestinal secretory response followed by a period of “small intestinal quieting,” and the subsequent passage of a normally formed bowel movement. These events are best explained as a consequence of the stimulation of a heretofore unknown physiological gastrointestinal response, in this invention shown to be controlled or initiated by an effective oral dose of an aminosterol such as squalamine or the related aminosterol, 1436 (Aminosterol-Induced GI Response). The activity relates to stimulating the neural connections between the enteric nervous system and the brain with therapeutic value, which can thereby impact sleeping disorders, sleeping disturbances, or related symptoms, as described herein. With respect to this activity, the sequence of events stimulated by an aminosterol involves the entrainment of the circadian clock, the suprachiasmatic nucleus, and an improvement in the quality of sleep. […]

For the next data set, the system named is dogs, and rodents. The conditions noted are these: administered orally; cited from earlier work.
The conditions of data set [2]: in vivo; cited from earlier work.
For data set [3] the following is noted: single and repeat intravenous administration; cited from earlier work.

With `CN(C)C(=O)C(CCN1CCC(O)(c2ccc(Cl)cc2)CC1)(c1ccccc1)c1ccccc1` [loperamide, reference compound], the colonic peristalsis result in the data set with isolated colons is listed as “inhibited”.
Take `CC(C)[C@@H](CC[C@@H](C)[C@H]1CC[C@H]2[C@@H]3[C@H](O)C[C@H]4C[C@@H](NCCCNCCCCNCCCN)CC[C@]4(C)[C@H]3CC[C@]12C)OS(=O)(=O)O` [Aminosterol 1436]: the “duration of the aminosterol-induced response” value in data set [1] is given as “about 4 days”. Also, the anorectic activity result in the data set with dogs, and rodents is listed as “no anorectic activity”.
`CC(C)[C@@H](CC[C@@H](C)[C@H]1CC[C@H]2[C@@H]3[C@H](O)C[C@H]4C[C@@H](NCCCNCCCCN)CC[C@]4(C)[C@H]3CC[C@]12C)OS(=O)(=O)O.C[C@H](O)C(=O)O.O` [squalamine lactate]: the oral bioavailability result in data set [2] is listed as “poorly bioavailable orally”. In addition, the well tolerated dose entry in data set [3] is recorded as “at least 300 mg/m^2”.
